# Experimental data taken from ChEMBL document CHEMBL1201862, “PubChem BioAssay data set” (2004).
# The source made the active and inactive calls. Unless noted, no cut-off for these calls is given here.
# How the values were obtained:
# [1] = molecular target: Muscarinic acetylcholine receptor M1 (Rattus norvegicus, UniProt P08482); assay: concentration-dependent potentiation of ACh at M1 – cell-based, calcium mobilization, CHO-K1, ACh EC20, dose response (AID 2425); format: functional
# [2] = molecular target: Muscarinic acetylcholine receptor M4 (Rattus norvegicus, UniProt P08485); assay: potentiation of ACh calcium response at rM4 – cell-based, CHO-K1 rat M4/Gqi5, Fluo-4 calcium, ACh EC20, selectivity assay for M1 muscarinic PAM project, dose response (AID 2438); format: functional
# [3] = molecular target: Muscarinic acetylcholine receptor M3 (Homo sapiens, UniProt P20309); assay: potentiation of ACh response at M3 – cell-based, CHO-K1 hM3, Fluo-4 calcium, ACh EC20, selectivity assay for M1 PAM project, dose response (AID 2428); format: functional
# [4] = molecular target: Induced myeloid leukemia cell differentiation protein Mcl-1 (Homo sapiens, UniProt Q07820); format: functional
# NADPH oxidase 1 [5] = molecular target: T1, NADPH oxidase 1 (Homo sapiens, UniProt Q9Y5S8); assay: Luminescence-based cell-based dose response assay to identify inhibitors of NADPH oxidase 1 (NOX1).; format: functional
# T1 sequence (Q9Y5S8 whole entry): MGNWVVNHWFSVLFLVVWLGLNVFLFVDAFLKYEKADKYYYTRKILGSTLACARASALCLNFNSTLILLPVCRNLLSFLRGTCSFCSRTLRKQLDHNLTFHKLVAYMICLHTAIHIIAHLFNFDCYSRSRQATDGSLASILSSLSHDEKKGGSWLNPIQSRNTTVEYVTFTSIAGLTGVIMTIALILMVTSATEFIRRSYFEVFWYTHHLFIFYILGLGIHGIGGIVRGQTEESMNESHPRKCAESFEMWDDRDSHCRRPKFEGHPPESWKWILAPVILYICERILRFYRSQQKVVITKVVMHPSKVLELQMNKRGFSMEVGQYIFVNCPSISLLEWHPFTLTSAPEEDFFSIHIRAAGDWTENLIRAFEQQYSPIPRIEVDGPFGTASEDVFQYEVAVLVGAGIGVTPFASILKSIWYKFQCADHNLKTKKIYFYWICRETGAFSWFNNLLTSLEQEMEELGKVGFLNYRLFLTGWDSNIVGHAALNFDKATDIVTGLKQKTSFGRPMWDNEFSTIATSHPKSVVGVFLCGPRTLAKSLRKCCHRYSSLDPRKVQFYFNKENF
# [6] = molecular target: Lytic switch protein BZLF1 (Epstein-Barr virus (strain B95-8) (HHV-4) (Human herpesvirus 4), UniProt P03206); assay: inhibition of BZLF1 ZTA DNA binding – biochemical, fluorescence polarization, Epstein-Barr virus, 1536-well, counter-screen for EBNA-1 inhibitor project, dose response (AID 2377); parameters: species or system human gammaherpesvirus 4;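 note: fluorescence polarization of Cy5-labelled ZRE DNA probe bound by purified Zta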
# [7] = molecular target: Epstein-Barr nuclear antigen 1 (Epstein-Barr virus (strain B95-8) (HHV-4) (Human herpesvirus 4), UniProt P03211); assay: inhibition of EBV nuclear antigen 1 DNA binding – biochemical, fluorescence polarization, 1536-well, dose response (AID 2381); parameters: species or system human gammaherpesvirus 4;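 note: fluorescence polarization of a Cy5 DNA probe bound by EBNA-1 protein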
# [8] = molecular target: T2, Neuropeptide Y receptor type 1 (Homo sapiens, UniProt P25929); assay: Fluorescence-based counterscreen for potentiators or agonists of NPY-Y2: cell-based high-throughput dose response assay for potentiators or agonists of NPY-Y1.; format: functional
# T2 sequence (P25929 whole entry): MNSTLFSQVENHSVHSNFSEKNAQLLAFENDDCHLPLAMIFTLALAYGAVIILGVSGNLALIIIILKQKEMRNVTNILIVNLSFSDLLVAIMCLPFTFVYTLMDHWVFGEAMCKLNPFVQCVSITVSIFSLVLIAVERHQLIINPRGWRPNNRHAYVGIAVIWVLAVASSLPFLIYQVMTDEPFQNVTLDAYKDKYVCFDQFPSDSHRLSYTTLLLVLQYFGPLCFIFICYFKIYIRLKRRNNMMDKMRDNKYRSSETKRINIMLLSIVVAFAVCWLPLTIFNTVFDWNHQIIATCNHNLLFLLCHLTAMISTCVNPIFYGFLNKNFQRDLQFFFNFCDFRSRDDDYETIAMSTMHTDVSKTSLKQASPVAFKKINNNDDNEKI
# Nonstructural protein 1 = Nonstructural protein 1 (Influenza A virus, UniProt Q194T2); format: functional, Influenza A virus (A/California/07/2009(H1N1))
# [9] = fluconazole-exposed Candida albicans growth modulators – fluorescence, retest, confirmation (AID 2467); format: functional, cell-based
# HEK293 = assay: Fluorescence-based counterscreen for potentiators or agonists of NPY-Y2: cell-based high-throughput dose response assay to identify inhibitors of cyclic nucleotide gated ion channel (CNGC) activity. In this assay, the parental HEK293 cell line transfected with a cyclic-nucleotide gated ion channel (CNGC)-based cAMP sensor is used to measure inhibition of isoproterenol-induced CNGC activity by test compound.; format: functional; settings: Homo sapiens;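 note: stimulus is 1 µM isoproterenol at EC100 plus PDE inhibitor Ro 20-1724 at 25 µM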
# [10] = Luminescent dose response cell-based high throughput screening assay for inhibitors of the Janus kinase 2 mutant JAK2V617F. [Related pubchem assays: 1446 (Primary screen.), 1521 (Confirmation assay.), 1486 (Counter screen.)]; format: functional
# [11] = molecular target: T3, Zinc finger protein mex-5 (Caenorhabditis elegans, UniProt Q9XUB2); assay: potency of MEX-5 RNA-binding blockers – biochemical, C. elegans, fluorescence polarization, dose response (AID 1960)
# T3 sequence (Q9XUB2 whole entry): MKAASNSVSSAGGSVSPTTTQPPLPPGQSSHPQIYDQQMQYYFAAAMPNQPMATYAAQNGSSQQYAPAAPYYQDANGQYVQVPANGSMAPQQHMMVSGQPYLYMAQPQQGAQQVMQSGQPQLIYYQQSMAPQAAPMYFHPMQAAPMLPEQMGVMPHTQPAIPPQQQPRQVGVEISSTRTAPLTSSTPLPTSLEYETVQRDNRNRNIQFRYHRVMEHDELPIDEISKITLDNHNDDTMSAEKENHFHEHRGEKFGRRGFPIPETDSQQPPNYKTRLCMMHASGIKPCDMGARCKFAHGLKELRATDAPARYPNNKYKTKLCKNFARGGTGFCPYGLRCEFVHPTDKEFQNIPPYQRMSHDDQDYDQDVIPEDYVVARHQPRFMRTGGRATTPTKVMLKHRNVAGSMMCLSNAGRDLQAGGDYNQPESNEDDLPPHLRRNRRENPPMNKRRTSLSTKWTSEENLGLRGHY
# [12] = molecular target: T4, Neuropeptide Y receptor type 2 (Homo sapiens, UniProt P49146); assay: Fluorescence-based cell-based high-throughput dose response assay for agonists of NPY-Y2. [Related pubchem assays: 1703 (Screening assay (CNGC inhibitors).), 1359 (Screening assay (NPY-Y2 potentiators or agonists).), 1304 (Screening assay (NPY-Y1 potentiators or agonists).), 1710 (Screening assay (NPY-Y2 agonists).), 1791 (Summary AID.)]; format: functional
# T4 sequence (P49146 whole entry): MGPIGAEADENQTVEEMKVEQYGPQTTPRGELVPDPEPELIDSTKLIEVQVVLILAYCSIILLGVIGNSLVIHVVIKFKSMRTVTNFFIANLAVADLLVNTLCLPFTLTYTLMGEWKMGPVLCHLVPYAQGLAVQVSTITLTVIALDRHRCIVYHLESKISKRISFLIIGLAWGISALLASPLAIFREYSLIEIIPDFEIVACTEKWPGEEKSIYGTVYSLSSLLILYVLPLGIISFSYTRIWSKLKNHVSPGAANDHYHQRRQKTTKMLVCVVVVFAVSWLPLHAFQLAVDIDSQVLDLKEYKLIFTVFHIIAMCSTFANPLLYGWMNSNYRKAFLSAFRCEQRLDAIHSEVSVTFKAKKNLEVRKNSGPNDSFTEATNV
# [13] = NIH-3T3 fibroblast cytotoxicity, dose response, cytotoxicity control, cell-based, fluorescence, Alamar Blue, secondary assay (AID 2327); format: functional;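 note: NIH-3T3 mouse fibroblasts cultured with fluconazole at 8 µg/mL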
# [14] = molecular target: T2, Neuropeptide Y receptor type 1; assay: Fluorescence-based counterscreen for agonists of NPY-Y2: cell-based high-throughput dose response assay for agonists of NPY-Y1.; format: functional
# [15] = molecular target: T5, Histone-lysine N-methyltransferase NSD2 (Homo sapiens, UniProt O96028); format: biochemical
# T5 sequence (O96028 whole entry): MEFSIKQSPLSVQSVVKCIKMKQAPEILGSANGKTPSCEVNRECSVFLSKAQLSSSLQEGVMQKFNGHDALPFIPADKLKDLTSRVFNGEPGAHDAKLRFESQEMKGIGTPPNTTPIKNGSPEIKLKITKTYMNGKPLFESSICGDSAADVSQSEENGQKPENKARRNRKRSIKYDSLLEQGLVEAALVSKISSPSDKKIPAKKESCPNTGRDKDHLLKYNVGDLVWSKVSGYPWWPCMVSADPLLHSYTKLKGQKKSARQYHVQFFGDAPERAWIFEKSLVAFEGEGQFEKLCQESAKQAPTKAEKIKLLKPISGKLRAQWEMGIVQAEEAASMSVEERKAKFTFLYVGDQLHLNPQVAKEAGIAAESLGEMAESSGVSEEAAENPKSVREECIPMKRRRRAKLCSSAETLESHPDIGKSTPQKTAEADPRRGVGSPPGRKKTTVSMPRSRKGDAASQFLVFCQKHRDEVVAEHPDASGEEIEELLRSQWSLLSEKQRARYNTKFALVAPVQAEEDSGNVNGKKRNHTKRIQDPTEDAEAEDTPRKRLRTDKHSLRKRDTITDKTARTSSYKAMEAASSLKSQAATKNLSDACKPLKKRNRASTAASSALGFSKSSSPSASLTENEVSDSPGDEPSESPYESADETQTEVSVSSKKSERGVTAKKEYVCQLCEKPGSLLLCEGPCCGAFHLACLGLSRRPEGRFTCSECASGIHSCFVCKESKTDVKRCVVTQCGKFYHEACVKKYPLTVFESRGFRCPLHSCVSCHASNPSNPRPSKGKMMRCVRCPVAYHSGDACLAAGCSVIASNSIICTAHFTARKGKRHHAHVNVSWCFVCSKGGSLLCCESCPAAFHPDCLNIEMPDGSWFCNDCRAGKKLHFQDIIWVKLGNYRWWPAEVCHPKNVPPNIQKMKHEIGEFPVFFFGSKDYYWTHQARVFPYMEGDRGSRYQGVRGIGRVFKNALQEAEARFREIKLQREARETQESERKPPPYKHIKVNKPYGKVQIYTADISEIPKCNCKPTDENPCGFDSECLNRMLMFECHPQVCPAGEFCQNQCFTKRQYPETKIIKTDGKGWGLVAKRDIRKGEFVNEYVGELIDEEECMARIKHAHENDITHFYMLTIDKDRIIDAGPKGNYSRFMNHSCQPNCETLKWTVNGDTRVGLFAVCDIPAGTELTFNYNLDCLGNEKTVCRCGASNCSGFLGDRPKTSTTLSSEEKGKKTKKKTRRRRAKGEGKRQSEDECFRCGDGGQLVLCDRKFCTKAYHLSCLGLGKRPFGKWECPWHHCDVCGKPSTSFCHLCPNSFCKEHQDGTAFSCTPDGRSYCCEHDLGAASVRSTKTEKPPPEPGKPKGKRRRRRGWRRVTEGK
# [16] = molecular target: T4, Neuropeptide Y receptor type 2; assay: Fluorescence-based cell-based high-throughput dose response assay for potentiators or agonists of NPY-Y2. [Related pubchem assays: 1539 (Screening assay (NPY-Y2 potentiators or agonists).), 1703 (Screening assay (CNGC inhibitors).), 1359 (Screening assay (NPY-Y2 potentiators or agonists).), 1304 (Screening assay (NPY-Y1 potentiators or agonists).) …; format: functional
# [17] = molecular target: T6, RNA-binding protein pos-1 (Caenorhabditis elegans, UniProt G5EF15); assay: disruptors of C. elegans POS-1 RNA interaction – biochemical, fluorescence polarization, dose response (AID 1964);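 note: purified POS-1 fused to maltose binding protein made in E. coli; potency of compounds blocking POS-1 binding to fluorescent RNA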
# T6 sequence (G5EF15 whole entry): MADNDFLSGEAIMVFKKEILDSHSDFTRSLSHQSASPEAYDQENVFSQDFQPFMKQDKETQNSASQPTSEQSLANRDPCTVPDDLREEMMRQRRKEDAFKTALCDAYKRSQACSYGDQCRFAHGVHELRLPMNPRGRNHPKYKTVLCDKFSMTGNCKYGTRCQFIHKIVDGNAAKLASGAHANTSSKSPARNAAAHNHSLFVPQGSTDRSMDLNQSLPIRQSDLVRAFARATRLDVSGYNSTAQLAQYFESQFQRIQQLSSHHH
# Estrogen receptor = Estrogen receptor (Homo sapiens, UniProt P03372); assay: ERα coactivator recruitment enhancers – biochemical, TR-FRET, ERα LBD, dose response (AID 737)
# NADPH oxidase 1 [18] = molecular target: T1, NADPH oxidase 1; format: functional, cell-based
# [19] = molecular target: T4, Neuropeptide Y receptor type 2; format: functional, cell-based
# [20] = molecular target: T2, Neuropeptide Y receptor type 1; format: functional
# Sequence of Epstein-Barr nuclear antigen 1 (P03211 whole entry): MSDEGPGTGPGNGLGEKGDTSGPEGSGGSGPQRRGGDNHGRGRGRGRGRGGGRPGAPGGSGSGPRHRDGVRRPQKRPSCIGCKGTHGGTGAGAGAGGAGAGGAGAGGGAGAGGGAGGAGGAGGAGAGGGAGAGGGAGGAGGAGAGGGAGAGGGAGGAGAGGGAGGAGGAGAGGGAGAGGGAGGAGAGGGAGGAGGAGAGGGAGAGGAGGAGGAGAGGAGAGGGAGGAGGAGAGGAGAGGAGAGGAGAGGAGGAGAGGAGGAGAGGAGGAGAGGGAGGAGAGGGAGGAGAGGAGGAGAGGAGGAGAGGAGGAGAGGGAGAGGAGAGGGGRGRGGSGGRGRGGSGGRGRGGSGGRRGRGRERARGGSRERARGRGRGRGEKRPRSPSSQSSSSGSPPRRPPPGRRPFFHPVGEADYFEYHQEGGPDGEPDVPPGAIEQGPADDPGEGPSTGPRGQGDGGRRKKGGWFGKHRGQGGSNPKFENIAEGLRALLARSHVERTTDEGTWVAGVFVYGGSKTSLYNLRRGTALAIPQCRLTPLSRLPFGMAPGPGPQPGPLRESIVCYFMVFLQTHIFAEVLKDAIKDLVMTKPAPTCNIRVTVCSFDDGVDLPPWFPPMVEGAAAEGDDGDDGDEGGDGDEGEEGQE
# Sequence of Muscarinic acetylcholine receptor M1 (P08482 whole entry): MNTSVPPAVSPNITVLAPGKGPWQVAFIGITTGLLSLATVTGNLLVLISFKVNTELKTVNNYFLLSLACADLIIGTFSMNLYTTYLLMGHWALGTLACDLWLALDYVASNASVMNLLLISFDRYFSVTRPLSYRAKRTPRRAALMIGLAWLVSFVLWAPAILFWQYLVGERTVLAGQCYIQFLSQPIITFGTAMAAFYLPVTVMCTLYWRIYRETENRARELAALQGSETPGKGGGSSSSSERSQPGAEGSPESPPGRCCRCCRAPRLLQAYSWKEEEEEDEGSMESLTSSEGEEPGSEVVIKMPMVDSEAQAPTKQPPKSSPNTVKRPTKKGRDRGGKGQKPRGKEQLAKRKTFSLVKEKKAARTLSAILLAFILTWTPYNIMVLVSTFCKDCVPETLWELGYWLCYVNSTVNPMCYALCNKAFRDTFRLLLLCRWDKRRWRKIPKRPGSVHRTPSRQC
# Sequence of Estrogen receptor (P03372 whole entry, the tested form may be a part): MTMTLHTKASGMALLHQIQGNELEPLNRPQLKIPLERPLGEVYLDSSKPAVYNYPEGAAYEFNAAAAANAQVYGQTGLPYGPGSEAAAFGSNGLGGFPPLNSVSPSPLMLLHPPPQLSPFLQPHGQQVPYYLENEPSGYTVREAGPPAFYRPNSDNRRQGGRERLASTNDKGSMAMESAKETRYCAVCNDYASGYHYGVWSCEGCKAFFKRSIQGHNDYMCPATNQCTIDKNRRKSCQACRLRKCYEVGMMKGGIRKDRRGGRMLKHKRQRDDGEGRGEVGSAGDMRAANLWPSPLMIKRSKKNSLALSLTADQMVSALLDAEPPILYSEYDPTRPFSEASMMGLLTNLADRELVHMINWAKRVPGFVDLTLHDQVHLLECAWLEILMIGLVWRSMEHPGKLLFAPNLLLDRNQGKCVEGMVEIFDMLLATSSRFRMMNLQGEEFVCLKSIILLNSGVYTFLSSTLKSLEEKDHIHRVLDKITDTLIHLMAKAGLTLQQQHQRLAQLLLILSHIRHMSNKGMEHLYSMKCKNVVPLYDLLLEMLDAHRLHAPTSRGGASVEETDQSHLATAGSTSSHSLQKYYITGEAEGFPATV
# Sequence of Nonstructural protein 1 (Q194T2 whole entry): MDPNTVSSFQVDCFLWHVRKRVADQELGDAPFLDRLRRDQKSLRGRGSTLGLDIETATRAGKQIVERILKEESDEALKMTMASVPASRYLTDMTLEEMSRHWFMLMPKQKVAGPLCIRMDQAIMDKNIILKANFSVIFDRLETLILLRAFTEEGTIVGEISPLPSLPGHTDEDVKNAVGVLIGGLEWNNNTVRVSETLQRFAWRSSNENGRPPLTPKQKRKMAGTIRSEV
# Sequence of Muscarinic acetylcholine receptor M3 (P20309 whole entry): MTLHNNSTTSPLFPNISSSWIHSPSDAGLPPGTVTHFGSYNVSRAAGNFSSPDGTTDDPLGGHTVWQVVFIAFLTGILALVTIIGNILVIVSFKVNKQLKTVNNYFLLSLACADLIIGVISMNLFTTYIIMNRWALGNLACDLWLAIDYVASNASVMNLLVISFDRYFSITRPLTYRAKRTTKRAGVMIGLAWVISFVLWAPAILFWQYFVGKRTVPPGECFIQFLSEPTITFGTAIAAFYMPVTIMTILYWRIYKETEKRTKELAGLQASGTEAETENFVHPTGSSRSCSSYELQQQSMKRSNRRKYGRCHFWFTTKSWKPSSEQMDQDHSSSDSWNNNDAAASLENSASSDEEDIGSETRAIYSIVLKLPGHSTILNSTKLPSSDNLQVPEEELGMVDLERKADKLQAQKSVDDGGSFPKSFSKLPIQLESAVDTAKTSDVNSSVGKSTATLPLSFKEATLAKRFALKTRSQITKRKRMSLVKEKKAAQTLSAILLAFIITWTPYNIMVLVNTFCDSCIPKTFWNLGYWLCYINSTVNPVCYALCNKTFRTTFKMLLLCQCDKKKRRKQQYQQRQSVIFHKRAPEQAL
# Sequence of Lytic switch protein BZLF1 (P03206 whole entry): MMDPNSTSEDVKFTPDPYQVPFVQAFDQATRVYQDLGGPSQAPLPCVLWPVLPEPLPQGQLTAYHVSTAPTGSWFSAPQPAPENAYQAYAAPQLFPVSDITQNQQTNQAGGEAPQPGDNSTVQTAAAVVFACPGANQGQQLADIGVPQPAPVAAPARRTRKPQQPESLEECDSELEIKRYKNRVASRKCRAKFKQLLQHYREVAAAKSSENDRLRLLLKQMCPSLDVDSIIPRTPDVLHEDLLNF
# Sequence of Muscarinic acetylcholine receptor M4 (P08485 whole entry): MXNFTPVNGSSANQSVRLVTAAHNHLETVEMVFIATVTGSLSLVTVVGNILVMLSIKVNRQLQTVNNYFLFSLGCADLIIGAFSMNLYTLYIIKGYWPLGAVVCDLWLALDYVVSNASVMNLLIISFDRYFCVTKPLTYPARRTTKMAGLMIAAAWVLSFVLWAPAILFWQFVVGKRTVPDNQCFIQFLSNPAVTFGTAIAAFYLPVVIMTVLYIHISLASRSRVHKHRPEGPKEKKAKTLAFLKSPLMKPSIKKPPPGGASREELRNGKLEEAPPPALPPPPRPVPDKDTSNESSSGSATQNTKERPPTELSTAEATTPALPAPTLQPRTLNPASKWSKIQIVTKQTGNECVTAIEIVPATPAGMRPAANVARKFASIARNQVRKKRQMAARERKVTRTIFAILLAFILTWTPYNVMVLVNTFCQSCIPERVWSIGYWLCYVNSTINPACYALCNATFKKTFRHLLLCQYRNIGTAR
# Sequence of Induced myeloid leukemia cell differentiation protein Mcl-1 (Q07820 whole entry): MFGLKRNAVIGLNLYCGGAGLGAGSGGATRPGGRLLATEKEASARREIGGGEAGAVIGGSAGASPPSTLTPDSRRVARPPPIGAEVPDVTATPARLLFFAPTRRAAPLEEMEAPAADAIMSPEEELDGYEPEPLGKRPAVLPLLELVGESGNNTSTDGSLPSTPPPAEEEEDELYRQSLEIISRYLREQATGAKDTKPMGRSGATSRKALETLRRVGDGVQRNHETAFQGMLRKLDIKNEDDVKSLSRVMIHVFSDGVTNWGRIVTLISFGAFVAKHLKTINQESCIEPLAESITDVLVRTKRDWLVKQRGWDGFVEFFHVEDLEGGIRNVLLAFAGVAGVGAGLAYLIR
smiles,measurement,setting,value
Cn1cc(-c2ccc(CN3C(=O)C(=O)c4ccccc43)cc2)cn1,EC50,[1],2.42 µM (active)
same,EC50,[2],2.71 µM (active)
same,EC50,[3],2.71 µM (active)
CCN(CC)c1ccc(NC(=O)Nc2ccc(C(C)=O)cc2)cc1,IC50,[4],4.48 µM (not active)
same,IC50,NADPH oxidase 1 [5],0.252 µM (active)
CC(=O)Nc1ccc(S(=O)(=O)N2CCN(Cc3nc(O)c4c(C)c(C)sc4n3)CC2)cc1,IC50,[6],> 111 µM (not active)
same,IC50,[7],> 148 µM (not active)
O=C1/C(=C/c2ccc(O)c(O)c2)SC(=S)N1Nc1ccccc1,EC50,[8],> 35.4 µM (not active)
same,IC50,Nonstructural protein 1,31.6 µM (active)
same,EC50,[9],> 38 µM (not active)
same,EC50,HEK293,> 35.4 µM (not active)
same,IC50,[10],1.53 µM (active)
same,EC50,[11],16.2 µM (active)
same,EC50,[12],> 35.4 µM (not active)
same,EC50,[13],41.6 µM (active)
same,EC50,[14],> 11.8 µM (not active)
same,AC50,[15],1.49 µM (active)
same,EC50,[16],26.6 µM (not active)
same,EC50,[17],39.2 µM (active)
Cc1ccc(CN(Cc2cc3cc(C)ccc3[nH]c2=O)C(=O)N2CCOCC2)cc1,EC50,Estrogen receptor,12.6 µM (not active)
COc1ccccc1OC(=O)c1cc2ccccc2s1,IC50,NADPH oxidase 1 [18],> 17 µM (not active)
CCCCC(=O)N/N=C/c1ccc(N2CCOCC2)c([N+](=O)[O-])c1,IC50,[19],16.3 µM (not active)
same,IC50,[20],26.7 µM (not active)
